Reference: article PMC11002716 (ACS chemical biology, 2022)
Ends that are not written are not given here.

What was measured:
[1] = molecular target: fluorescein-labeled KB-752; test: MST
[2] = test system: Gs signaling (β2–adrenergic receptor, AC); test: Cell-free ELISA-based cAMP assay on NG108–15 membrane preparations; format: biochemical
[3] = test system: Gi signaling (δ–opioid receptor, AC); test: as above; format: biochemical; settings: Fsk+DADLE
[4] = test system: HEK293 cells overexpressing the SNAP-β2 adrenergic receptor (Gs signaling pathway); test: Whole-cell Iso-induced cAMP accumulation assay; format: cell-based
[5] = molecular target: Gαi1·GDP (UniProt P63096 2-354); test: MST
Chain of Gαi1·GDP (UniProt P63096 2-354) (P63096 2-354): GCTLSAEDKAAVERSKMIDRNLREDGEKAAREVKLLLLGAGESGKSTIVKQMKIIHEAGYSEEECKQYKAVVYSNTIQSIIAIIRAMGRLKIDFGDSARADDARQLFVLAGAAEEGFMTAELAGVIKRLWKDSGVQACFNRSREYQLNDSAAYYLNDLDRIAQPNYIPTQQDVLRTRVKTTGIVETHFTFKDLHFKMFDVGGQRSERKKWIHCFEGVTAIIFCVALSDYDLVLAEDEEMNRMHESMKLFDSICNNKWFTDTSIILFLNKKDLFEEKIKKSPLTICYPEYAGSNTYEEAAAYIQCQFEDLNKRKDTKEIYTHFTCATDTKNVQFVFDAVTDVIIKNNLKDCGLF

Chain of Gαi1·GDP (from UniProt P63096 2-354) (natural protein) (P63096 2-354): as above

Molecule: Gαi1·GDP (from UniProt P63096 2-354) (natural protein)
- Kd [1]: 345 nM

Molecule: SRVTWYDFLMEDTKSR-OH [KB–752]
- effect on Gs signaling / functional regulation of Gαs in cell-free ELISA [2]: inhibit Gs signaling
- effect on DADLE-mediated inhibition of the AC activity [3]: no effect
- effect on Gαs in the whole cell assay [4]: no effect

Molecule: {5(6)‑carboxyfluorescein}-RWLRALRYP [GPM-1 Y5A, fluorescein-labeled]
- Kd [5]: 285 ± 40 nM
